Consider 2 compounds from US20240217974A1, “ISOQUINOLONE COMPOUND AND USE THEREOF” (Suzhou Suncadia Biopharmaceuticals Co., Ltd., priority 2021, published 2024).

Like-named read-outs stand apart in the source and are kept apart here.

The conditions of data set [1]: mouse, in vivo, inhaled or intranasal. As for the experimental part:
To evaluate the pharmacokinetic characteristics of test samples in […] and their distributions in lung tissue after intratracheal administration.
0.5 g of tween 80 was weighed out and dissolved in 50 mL of a pH 2.5 citric acid/disodium hydrogen phosphate buffered salt solution for later use.
1.0 mg of test compound was weighed out and dissolved in a proper amount of the tween solution to prepare a 0.03 mg/mL for later use.
0.5 g of CMC-Na and 0.5 g of tween 20 were weighed out and well mixed with 50 mL of 0.9% normal saline solution to obtain a 1% CMC-Na and tween 20 solution for later use.
1.0 mg of test compound was weighed out, added to 10 mL of the above solution, dispersed ultrasonically, and well stirred to obtain a suspension for later use.
Mice were anesthetized with isoflurane gas and then administered compounds via the trachea. […] 200 μL of whole blood was collected, then anticoagulated with EDTA-K2, and centrifuged at 2-8° C. at a rate of about 6800 g for 6 min. The resulting plasma was transferred to properly labeled test tubes within 1 h of blood collection/centrifugation and stored at −80° C. […] The collected tissue samples were transferred to properly labeled test tubes and stored at −80° C.
Plasma samples (30.0 μL) were added to 1.5 mL centrifuge tubes, and 150 μL of internal standard working solution was added. […]

The conditions of data set [2]: recent phase II clinical data; cited from earlier work.
Data set [3] deals with T1, PDE4B1 (Homo sapiens, UniProt Q07343).
T1 construct: purchased BPS 60041
The data set can be described thus: In vitro PDE4B enzyme activity assay (IMAP FP-based). Type of data set: biochemical. As for the experimental part: (§1) The formula for calculating inhibition rates is: inhibition rate=M/(M−Mcontrol)×100; IC50 values were calculated from concentration-inhibition rate curves fitted.

The target of data set [4] is T2, PDE3A (Homo sapiens, UniProt Q14432).
T2 construct: purchased BPS 60030
Description: In vitro PDE3A enzyme activity assay (IMAP FP-based). The data set is classed as biochemical. As for the experimental part:
as §1

T1 sequence (Q07343 whole entry): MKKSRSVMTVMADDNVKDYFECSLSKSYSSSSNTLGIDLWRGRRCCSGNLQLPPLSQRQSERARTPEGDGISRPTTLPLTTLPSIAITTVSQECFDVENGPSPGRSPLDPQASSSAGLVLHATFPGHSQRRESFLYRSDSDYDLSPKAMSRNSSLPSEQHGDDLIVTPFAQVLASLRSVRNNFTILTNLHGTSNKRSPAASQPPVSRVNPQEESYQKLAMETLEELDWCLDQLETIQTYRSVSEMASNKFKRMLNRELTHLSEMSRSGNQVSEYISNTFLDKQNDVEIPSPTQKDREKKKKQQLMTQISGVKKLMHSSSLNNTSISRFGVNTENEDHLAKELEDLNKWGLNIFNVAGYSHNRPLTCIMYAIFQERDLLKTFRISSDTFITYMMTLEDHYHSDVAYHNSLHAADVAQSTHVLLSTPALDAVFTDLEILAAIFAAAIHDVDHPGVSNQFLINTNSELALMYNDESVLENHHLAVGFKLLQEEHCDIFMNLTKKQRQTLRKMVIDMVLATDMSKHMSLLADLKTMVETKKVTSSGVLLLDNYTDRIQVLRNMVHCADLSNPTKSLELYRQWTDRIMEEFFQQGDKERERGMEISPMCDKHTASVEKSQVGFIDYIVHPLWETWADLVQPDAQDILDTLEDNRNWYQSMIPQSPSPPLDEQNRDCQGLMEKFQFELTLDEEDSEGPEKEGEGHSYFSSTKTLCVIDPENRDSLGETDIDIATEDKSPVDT
T2 sequence (Q14432 669-1141 limits assumed): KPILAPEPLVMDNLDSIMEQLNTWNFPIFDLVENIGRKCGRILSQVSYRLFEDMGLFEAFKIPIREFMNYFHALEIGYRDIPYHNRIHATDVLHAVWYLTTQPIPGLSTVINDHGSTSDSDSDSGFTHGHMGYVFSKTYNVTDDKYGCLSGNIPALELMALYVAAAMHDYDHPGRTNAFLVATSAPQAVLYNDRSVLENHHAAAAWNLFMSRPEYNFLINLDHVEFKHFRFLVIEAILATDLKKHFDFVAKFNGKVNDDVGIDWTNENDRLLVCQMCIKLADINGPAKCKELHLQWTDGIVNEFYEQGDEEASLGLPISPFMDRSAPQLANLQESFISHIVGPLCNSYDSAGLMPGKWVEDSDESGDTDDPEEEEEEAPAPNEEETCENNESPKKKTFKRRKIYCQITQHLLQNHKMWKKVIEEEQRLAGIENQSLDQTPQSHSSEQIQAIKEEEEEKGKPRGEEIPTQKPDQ

The IC50 is the point on the concentration scale where inhibition reaches its midpoint. On to “9,10-dimethoxy-2-(2,4,6-trimethylphenylimino)-3-(N-carbamoyl-2-aminoethyl)-3,4,6,7-tetrahydro-2H-pyrimido[6,l-a]isoquinolin-4-one [RPL554]”, for which, in data set [1], the “Plasma T1/2” value worked out at 52.8 min and the “Plasma Tmax” value is 15 min. Besides, in data set [2], the “bronchodilation and symptoms in patients with chronic obstructive pulmonary disease” value is “significantly improve bronchodilation and symptoms”; the “tolerability / adverse events” value is on record as “well tolerated”. Further, the “Inhibition rate (%) PDE4B1 (2000 nM)” value in data set [3] (compound at 2000 nM) was 64.2%. Moreover, in data set [3] (read-out: IC50 (nM) PDE4B1), the IC50 came out at 110 nM. The compound further had an IC50 in data set [4] of 0.25 nM. The “Inhibition rate (%) PDE3A (500 nM)” value in data set [4] (compound at 500 nM) came out at 99.2%.

The term inhibition denotes how much of the control response was suppressed. For the compound `CCOc1cc2c(cc1OC)-c1cc(N(CCN3CCOC3=O)c3c(C)cc(C)cc3C)nc(=O)n1CC2` [WX001], the midpoint of inhibition in data set [3], the IC50, lay at 876 nM. In data set [3] (read-out: Inhibition rate (%) PDE4B1 (2000 nM)), the inhibition at 2 µM is 66.3%.
